From article PMC11476761, “Investigation of the Pharmacodynamic Components of Gastrodia elata Blume for Treatment of Type 2 Diabetes Mellitus through HPLC, Bioactivity, Network Pharmacology and Molecular Docking” (International Journal of Molecular Sciences, 2024) come the findings set out here.

Holding throughout (assay): PNPG hydrolysis, absorbance at […] nm
What all share (assay type): biochemical

In assay [1] the test system is T1, α-glucosidase.
T1 construct: gene MAL12; pNPG assay at pH 6.8 as usual for the yeast enzyme
The following applies: PNPG substrate, 0.2 U/mL enzyme, pH 6.8, 10 min; unreliable: text b23 swaps the parishin B and C values.

The target in assay [2] is T1, α-glucosidase. The following applies: PNPG substrate, 0.2 U/mL enzyme, pH 6.8, 10 min.
Assay [3] deals with T1, α-glucosidase. The note with it: PNPG substrate, 0.2 U/mL enzyme, pH 6.8, 10 min; unreliable: text b23 swaps the parishin B and C values. The source holds these as a separate data set.

Structures are written as SMILES.

Turning to `O=C(CC(O)(CC(=O)OCc1ccc(O[C@@H]2O[C@H](CO)[C@@H](O)[C@H](O)[C@H]2O)cc1)C(=O)O)OCc1ccc(O[C@@H]2O[C@H](CO)[C@@H](O)[C@H](O)[C@H]2O)cc1` [Parishin C], the “Parishin C” value in the assay on α-glucosidase [1] is given as 0.19 ± 0.03 mg/mL.
As for `O=C(O)CC(O)(CC(=O)OCc1ccc(O[C@@H]2O[C@H](CO)[C@@H](O)[C@H](O)[C@H]2O)cc1)C(=O)O` (stereo partly drawn) [Parishin E], the “Parishin E” value on α-glucosidase [2] is 0.54 ± 0.04 mg/mL.
On to `O=C(CC(O)(CC(=O)OCc1ccc(O[C@@H]2O[C@H](CO)[C@@H](O)[C@H](O)[C@H]2O)cc1)C(=O)OCc1ccc(O[C@@H]2O[C@H](CO)[C@@H](O)[C@H](O)[C@H]2O)cc1)OCc1ccc(O[C@@H]2O[C@H](CO)[C@@H](O)[C@H](O)[C@H]2O)cc1` [Parishin A], for which, on α-glucosidase [2], the “Parishin A” value is 0.24 ± 0.05 mg/mL.
With `O=C(O)CC(O)(CC(=O)OCc1ccc(O[C@@H]2O[C@H](CO)[C@@H](O)[C@H](O)[C@H]2O)cc1)C(=O)OCc1ccc(O[C@@H]2O[C@H](CO)[C@@H](O)[C@H](O)[C@H]2O)cc1` (stereo partly drawn) [Parishin B], the “Parishin B” value in the assay on α-glucosidase [3] worked out at 0.13 ± 0.03 mg/mL.
Take `OCc1ccc(O)cc1` [HBA]: the HBA at α-glucosidase [2] worked out at 0.16 ± 0.03 mg/mL.
At α-glucosidase [2], `OCc1ccc(O[C@@H]2O[C@H](CO)[C@@H](O)[C@H](O)[C@H]2O)cc1` [GAS] yielded a GAS of 1.23 ± 0.09 mg/mL.
